# In patent publication US20100249138A1, “MPZP: A SMALL MOLECULE CORTICOTROPIN-RELEASING FACTOR TYPE 1 RECEPTOR (CRF1) ANTOGONIST” (priority 2007, published 2010):
# “Also recorded” adds a separate entry of the source.
# Assays:
# [1] = tested on: binge drinking of sweetened alcohol; details: Ji et al. 2007, in review; cited from earlier work
# [2] = tested on: 62 other receptors, transporters, and ion channels; assay: Novascreen side-effect potential screening assay (GEN SEP I panel); assay type: binding; details: 10 μM
# Experimental: Specificity of MPZP for other receptor, transporter, and ion channel targets was determined at 1 and 10 μM concentrations via a commercial screening service (Novascreen, GEN SEP I panel, Hanover, Md.).
# [3] = tested on: precipitated-withdrawal induced anxiety-like behavior; assay: Defensive burying test during mecamylamine-precipitated nicotine withdrawal; assay type: in vivo, rat
# Experimental: Nicotine hydrogen tartrate salt (Sigma, Natick) was dissolved in saline at pH 7.4 and experimenter-administered via minipump or self-administered via indwelling jugular catheter. Doses are expressed as free base. Mecamylamine (Sigma; Natick, Mass.) was dissolved in saline and administered i.p. (1 ml/kg). The CRF1 antagonist (N,N-bis(2-methoxyethyl)-3-(4-methoxy-2-methylphenyl)-2,5-dimethyl-pyrazolo-[1,5α]pyrimidin-7-amine, or MPZP) was synthesized at The Scripps Research Institute by Dr. P. Wirshing, dissolved in 20% hydroxypropyl beta-cyclodextrin (Cavitron, Cargill) in isotonic saline at pH 4.5 and administered s.c. (2 ml/kg, 45 to 60 min before testing). Rat/human CRF was supplied by Dr. Jean Rivier, The Salk Institute. CRF was dissolved in 1× PBS (pH 7.4) and prepared fresh few minutes before intracerebral injection. The doses and time of injections were selected based on previous studies [Richardson et al., Program No. 783. 4 Neuroscience Meeting Planner. Atlanta, Ga.: Society for Neuroscience, OnlineI (2006); Specio et al., Program No. 777. 11 Neuroscience Meeting Planner. Washington, D.C.: Society for Neuroscience, Online (2004)].
# Rats were subcutaneously implanted with osmotic minipumps delivering either saline (n=33) or nicotine (n=31) (3.16 mg/kg/day, free base, s.c.) as described above. After 14 days of pump exposure, testing was performed 5-8 hours into the dark cycle in a standard cage with 2 inches of bedding (wood shavings) along the bottom and a small hole centered in one side one inch above the bedding to accommodate the shock-probe. Rats were habituated (45 minutes) to the test cage for 2 days prior to testing. On the test day, mecamylamine or its vehicle were administered 30 minutes before behavioral testing, and the CRF1 antagonist or its vehicle were administered 45 minutes before behavioral testing (n=7-9 per group). On contact with the probe and shock delivery (using a Coulbourn precision shocker, 1.5 mA, AC, <1 s), verified by a startle response, the probe was deactivated. The latency and duration of probe-directed burying, rearing, resting, grooming, and freezing were measured from videotape over a 10 minutes period by an experimenter blind to the subject treatment condition using a computer program.
# [4] = tested on: defensive burying model of active anxiety-like behavior; assay: Defensive burying test (Study 1); assay type: in vivo, rat
# From the text: The defensive burying test was used to assess effects of MPZP on anxiety-like behavior [Treit et al., Pharmacol. Biochem. Behay. (1981) 15:619-626; De Boer et al., Eur. J. Pharmacol. (2003) 463:145-161]. This model has been validated by anxiolytic and anxiogenic compounds, which decrease and increase defensive burying behavior, respectively [Korte et al., Physiol. Behay. (1994) 56:115-120; De Boer et al., Eur. J. Pharmacol. (2003) 463:145-161]. For two consecutive days before defensive burying testing, animals were acclimated to the testing apparatus by placing them for 45 minutes in the testing cage (a polycarbonate rat housing cage with 2 cm of bedding covering the floor and a small hole centered on a long dimension of the cage 1 inch above the bedding to accommodate the shock probe on the subsequent test day). On the day of testing, animals were brought into the anteroom at least 2 hours before testing began. Subjects were subcutaneously pretreated with MPZP (0, 5, 20 mg/kg) in a between-subjects design 1 hour before their test session. For testing, animals were placed individually in the test cage, and a shock probe connected to a Coulbourn precision shocker (model E13-01, Coulbourn Instruments, Allentown, Pa.) delivered one 1.5 mA shock (lasting <1 s) upon contact. As soon as the animal was shocked (verified by a startle response), the shock current was deactivated, and the 10 minute test began. Contact with the shock probe under these conditions results in the rat displacing bedding material with treading-like movements of the forepaws and shoveling movements of the head, often directed toward the shock probe. Latency to the first display of burying behavior and time spent burying (in four 2.5 minute bins throughout the 10 minute test) were assessed [Korte et al., Physiol. Behay. (1994) 56:115-120]. […] The effect of MPZP on defensive burying behavior (latency to first bury and burying time) were analyzed by analysis of variance (ANOVA), in which Dose was a between-subjects factor and Time bin was a repeated measure for duration of burying.
# [5] = nicotine pump, CRF1 antagonist + Mecamylamine
# [6] = nicotine pump, CRF1 antagonist + Vehicle
# [7] = saline pump, CRF1 antagonist + Mecamylamine
# [8] = saline pump, CRF1 antagonist + Vehicle
smiles,measurement,setting,value
"COCCN(CCOC)c1cc(C)nc2c(-c3ccc(OC)cc3C)c(C)nn12 [MPZP, N,N-bis(2-methoxyethyl)-3-(4-methoxy-2-methylphenyl)-2,5-dimethyl-pyrazolo[1,5-a]pyrimidin-7-amine]",nondependent binge drinking of sweetened alcohol,[1],had no effect
same,"activity at 62 other receptors, transporters, and ion channels",[2],did not exhibit high activity
same,Burying,[3]; [5],115 ± 24 s
same,Freezing,[3]; [5],7 ± 7 s
same,Grooming,[3]; [5],38 ± 14 s
same,Latency to bury,[3]; [5],82 ± 19 s
same,Rearing,[3]; [5],126 ± 21 s
same,Resting,[3]; [5],68 ± 26 s
same,Burying,[3]; [6],85 ± 42 s
same,Freezing,[3]; [6],13 ± 7 s
same,Grooming,[3]; [6],48 ± 18 s
same,Latency to bury,[3]; [6],130 ± 36 s
same,Rearing,[3]; [6],181 ± 21 s
same,Resting,[3]; [6],24 ± 11 s
same,anxiogenic-like effect of mecamylamine to increase burying,"[3]; nicotine-dependent rats, MPZP 4 mg/kg s.c. pretreatment, mecamylamine 1.5 mg/kg i.p.",blocked
same,Burying,[3]; [7],143 ± 20 s
same,Freezing,[3]; [7],5 ± 3 s
same,Grooming,[3]; [7],15 ± 5 s
same,Latency to bury,[3]; [7],80 ± 18 s
same,Rearing,[3]; [7],139 ± 7 s
same,Resting,[3]; [7],51 ± 22 s
same,Burying,[3]; [8],145 ± 34 s
same,Freezing,[3]; [8],9 ± 8 s
same,Grooming,[3]; [8],26 ± 12 s
same,Latency to bury,[3]; [8],104 ± 29 s
same,Rearing,[3]; [8],183 ± 19 s
same,Resting,[3]; [8],11 ± 7 s
same,total duration of defensive burying behavior,"[4]; 0, 5, 20 mg/kg s.c., systemic pretreatment",dose-dependently reduced; also recorded: reduced defensive burying time
same,duration of burying across the 10-minute observation period,"[4]; 20 mg/kg s.c., 1 hour before test, vs vehicle",significantly reduced
same,latency to start burying,"[4]; 5 and 20 mg/kg s.c., 1 hour before test, vs vehicle",increased the latency to start burying
